Measured values: publication PMC3909494 (Molecular cell, 2013)

Target: T1, TmMre11 (Thermotoga maritima Mre11 (1–324)) (Thermotoga maritima, UniProt Q9X1X0)
T1 sequence (Q9X1X0 1-324): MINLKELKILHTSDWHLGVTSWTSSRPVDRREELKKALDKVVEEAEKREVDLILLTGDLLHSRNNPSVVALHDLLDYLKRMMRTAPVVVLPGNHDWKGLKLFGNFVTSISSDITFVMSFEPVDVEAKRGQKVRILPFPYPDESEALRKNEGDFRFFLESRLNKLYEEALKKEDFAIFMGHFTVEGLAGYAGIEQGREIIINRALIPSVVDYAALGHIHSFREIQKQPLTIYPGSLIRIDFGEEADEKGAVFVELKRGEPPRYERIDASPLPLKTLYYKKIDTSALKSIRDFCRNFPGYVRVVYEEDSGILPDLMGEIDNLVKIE
Assay: exonuclease assay
Type: biochemical
Conditions: conditions only in supplement

inhibition of exonuclease activity: Nuclease assays using TmMre11
Compound: N=C1NC(=O)/C(=C/c2ccc(O)cc2)S1 [mirin]
